Assay [1] deals with Mycolicibacterium smegmatis. As to the kind of experiment: Antimycobacterial activity against Mycobacterium smegmatis MC2 155 ATCC 700084 assessed as growth inhibition at 10 uM after 5 days relative to control. The following applies: MC2 155 ATCC 700084, 120 h, read-out: GI. The assay is classed as functional.
Assay [2] deals with Mycobacterium tuberculosis. As to the kind of experiment: Antimycobacterial activity against Mycobacterium tuberculosis H37Rv ATCC 27294 assessed as growth inhibition at 10 uM after 5 days relative to control. Format: functional. The following applies: H37Rv ATCC 27294, 120 h, read-out: GI.

SMILES strings stand for the structures.

As for `CC(C)=CCC/C(C)=C/Cn1cc(CN2CCC3(CC2)OCCO3)c2cc(F)ccc21`, the inhibition of growth at 10 µM in assay [1] and in assay [2] was 99% each time.
In the case of `CCCCCCCCn1cc(CNC23CC4CC(CC(C4)C2)C3)c2cc(OC)ccc21`, the inhibition of growth at 10 µM in assay [1] and in assay [2] was 99% throughout.
As for `CCCCCCCCn1cc(CN2CCCCCC2)c2cc(OC)ccc21`, the inhibition of growth at 10 µM in assay [1] and in assay [2] was 99% each time.
For `CCCCCCCCn1cc(CN2CCC(C)CC2)c2cc(F)ccc21`, the inhibition of growth at 10 µM in assay [1] and in assay [2] was 99% throughout.
For `CCCCCCCCn1cc(CN2CCC(C)CC2)c2cccc(F)c21`, the inhibition of growth at 10 µM in assay [1] and in assay [2] was 99% each time.
As to `CC(C)=CCC/C(C)=C/Cn1cc(CN2CCCCC2)c2cc(Br)ccc21`, the inhibition of growth at 10 µM in assay [1] and in assay [2] was 99% throughout.
For the molecule `CCCCCCCCn1cc(CN2CCC(C)CC2)c2c(OC)cccc21`, the inhibition of growth at 10 µM in assay [1] and in assay [2] was 99% each time.
For the molecule `CCCCCCCCn1cc(CNC23CC4CC(CC(C4)C2)C3)c2ccc(OC)cc21`, the inhibition of growth at 10 µM in assay [1] and in assay [2] was 99% each time.
As to `CC(C)=CCC/C(C)=C/Cn1cc(CNC2CCCC2)c2cc(F)ccc21`, the inhibition of growth at 10 µM in assay [1] and in assay [2] was 99% each time.
`CCCCCCCCn1cc(CN(C)C)c2cc(F)ccc21`: the inhibition of growth at 10 µM in assay [1] and in assay [2] was 99% in each case.
With `CCCCCCCCn1cc(CN2CCN(CC)CC2)c2cc(F)ccc21`, the inhibition of growth at 10 µM in assay [1] and in assay [2] was 99% in each case.
As for `COc1ccc2c(c1)c(CN1CCCCC1)cn2C/C=C(\C)CCC=C(C)C`, the inhibition of growth at 10 µM in assay [1] and in assay [2] was 99% throughout.
Turning to `N#CCCCn1cc(CN2CCCCC2)c2cc(F)ccc21`, the inhibition of growth at 10 µM in assay [1] and in assay [2] was 99% each time.
As for `CC(C)=CCC/C(C)=C/Cn1cc(CN2CCCCCC2)c2cc(F)ccc21`, the inhibition of growth at 10 µM in assay [1] and in assay [2] was 99% in each case.
With `CC(C)=CCC/C(C)=C/Cn1cc(CN2CCSCC2)c2cc(F)ccc21`, the inhibition of growth at 10 µM in assay [1] and in assay [2] was 99% each time.
With `CCCCCCCCn1cc(CN2CCCCC2)c2cc(Br)ccc21`, the inhibition of growth at 10 µM in assay [1] and in assay [2] was 99% each time.
As to `Fc1ccc2c(c1)c(CN1CCCCC1)cn2CCC1CCCCC1`, the inhibition of growth at 10 µM in assay [1] and in assay [2] was 99% throughout.
In the case of `CCCCCCCCn1cc(CN2CCN(C)CC2)c2cc(F)ccc21`, the inhibition of growth at 10 µM in assay [1] and in assay [2] was 99% throughout.
As for `CCCCCCCCn1cc(CN2CCSCC2)c2cc(F)ccc21`, the inhibition of growth at 10 µM in assay [1] and in assay [2] was 99% each time.
As for `CCCCCCCCn1cc(CN2CCCCCC2)c2ccc(F)cc21`, the inhibition of growth at 10 µM in assay [1] and in assay [2] was 99% in each case.
For the molecule `CCCCCCCCn1cc(CN(CC)CC)c2cc(F)ccc21`, the inhibition of growth at 10 µM in assay [1] and in assay [2] was 99% in each case.
Turning to `CCCCCCCCn1cc(CNC2CCCC2)c2cc(F)ccc21`, the inhibition of growth at 10 µM in assay [1] and in assay [2] was 99% each time.
Take `CCCCCCCCn1cc(CNC23CC4CC(CC(C4)C2)C3)c2cccc(F)c21`: the inhibition of growth at 10 µM in assay [1] and in assay [2] was 99% in each case.
In the case of `CCCN(CC)Cc1cn(C/C=C(\C)CCC=C(C)C)c2ccc(F)cc12`, the inhibition of growth at 10 µM in assay [1] and in assay [2] was 99% in each case.
`CC(C)=CCC/C(C)=C/Cn1cc(CN2CCOCC2)c2cc(F)ccc21`: the inhibition of growth at 10 µM in assay [1] and in assay [2] was 99% throughout.
As to `CC(C)=CCC/C(C)=C/Cn1cc(CN2CCCCC2)c2cccnc21`, the inhibition of growth at 10 µM in assay [1] and in assay [2] was 99% in each case.
Take `CCCCCCCCn1cc(CN2CCC3(CC2)OCCO3)c2cc(OC)ccc21`: the inhibition of growth at 10 µM in assay [1] and in assay [2] was 99% throughout.
On to `CCCCCCCCn1cc(CN2CCC(C)CC2)c2ccc(F)cc21`, for which the inhibition of growth at 10 µM in assay [1] and in assay [2] was 99% in each case.
For the molecule `CCCN(CCC)Cc1cn(C/C=C(\C)CCC=C(C)C)c2ccc(F)cc12`, the inhibition of growth at 10 µM in assay [1] and in assay [2] was 99% each time.
`CCCCCCCCn1cc(CN2CCCCC2)c2c(OC)cccc21`: the inhibition of growth at 10 µM in assay [1] and in assay [2] was 99% in each case.
Turning to `CCCCCCCCn1cc(CN2CCCCC2)c2cccc(OC)c21`, the inhibition of growth at 10 µM in assay [1] and in assay [2] was 99% in each case.
For `Fc1ccc2c(c1)c(CN1CCCCC1)cn2CCCc1ccccc1`, the inhibition of growth at 10 µM in assay [1] and in assay [2] was 99% in each case.
As to `CC(C)=CCC/C(C)=C/Cn1cc(CN2CCCC2)c2cc(F)ccc21`, the inhibition of growth at 10 µM in assay [1] and in assay [2] was 99% throughout.
Take `CCCCCCCCn1cc(CN2CCOCC2)c2cc(F)ccc21`: the inhibition of growth at 10 µM in assay [1] and in assay [2] was 99% each time.
For the molecule `CCCCCCCCn1cc(CN2CCC3(CC2)OCCO3)c2c(OC)cccc21`, the inhibition of growth at 10 µM in assay [1] and in assay [2] was 99% throughout.
With `O=C(Cn1cc(CN2CCCCC2)c2cc(F)ccc21)NC1CC1`, the inhibition of growth at 10 µM in assay [1] and in assay [2] was 99% throughout.
Consider `CC(C)=CCC/C(C)=C/Cn1ccc2cc(F)ccc21`, for which the inhibition of growth at 10 µM in assay [1] and in assay [2] was 99% each time.
In the case of `CCCCCCCCn1cc(CN2CCCCC2)c2ccc(OC)cc21`, the inhibition of growth at 10 µM in assay [1] and in assay [2] was 99% in each case.
As to `CCCCCCCCn1cc(CN(CCCC)CCCC)c2cc(F)ccc21`, the inhibition of growth at 10 µM in assay [1] and in assay [2] was 99% each time.
Take `CCCCCCCCn1cc(CN(CC)CCC)c2cc(F)ccc21`: the inhibition of growth at 10 µM in assay [1] and in assay [2] was 99% throughout.
In the case of `CCCCCCCCn1cc(CN(CCC)CCC)c2cc(F)ccc21`, the inhibition of growth at 10 µM in assay [1] and in assay [2] was 99% throughout.
In the case of `CCCCCCCCn1cc(CN2CCCCCC2)c2cccc(F)c21`, the inhibition of growth at 10 µM in assay [1] and in assay [2] was 99% each time.
Consider `CCCCCCCCn1cc(CN2CCCCC2)c2cc(OC)ccc21`, for which the inhibition of growth at 10 µM in assay [1] and in assay [2] was 99% each time.
`CCCCCCCCn1cc(CN2CCC3(CC2)OCCO3)c2cccc(F)c21`: the inhibition of growth at 10 µM in assay [1] and in assay [2] was 99% in each case.
For the molecule `CC(C)=CCC/C(C)=C/Cn1cc(CNC23CC4CC(CC(C4)C2)C3)c2cc(F)ccc21`, the inhibition of growth at 10 µM in assay [1] and in assay [2] was 99% each time.
As for `CCCCCCCCn1cc(CN2CCCCCC2)c2ccc(OC)cc21`, the inhibition of growth at 10 µM in assay [1] and in assay [2] was 99% in each case.
In the case of `CCCCCCCCn1cc(CNC23CC4CC(CC(C4)C2)C3)c2c(OC)cccc21`, the inhibition of growth at 10 µM in assay [1] and in assay [2] was 99% each time.
